One experiment deals with MUC5AC. Put plainly: Inhibition of TNF-alpha induced MUC5AC mRNA expression in H292 cells (qRT-PCR). In kind it is cell-based, human. As to conditions: TNF-α 20 ng/ml. The protocol:
In order to determine the inhibitory effect on the expression of MUC5AC induced by TNF-alpha in H292 cell line, following test was performed:
The isolation of total RNA, cDNA synthesis and quantitative real-time PCR were performed by the method disclosed in the literature (Kim et al., J. Cell. Biochem. 2008, 104, 1906-1917).
In summary, total RNA was isolated using by TRIzol reagent (155596-026, Life Technologies) and the first strand cDNA was synthesized using by enzyme (Omniscript Reverse Transcriptase, 205113, Qiagen, Calif.). The quantitative real-time PCR amplification was performed using by apparatus 1 (S1000 Thermal cycler, Bio-rad, USA) and apparatus 2 (2× Greenstar master mix, Bioneer, Korea) according to the manufacture's manual.
Specifically, the reproduced amount of TNF-alpha induced MUC5AC was determined by Real-time polymerase chain reaction (real-time PCR), quantitative real time polymerase chain reaction (qPCR) and MUC5AC immunoassay. H292 cells were inoculated into 48 well plates in a concentration of 2×10^4 cells/well to adhere for 24 hours and the culture medium was replaced with new 0.1% FBS containing medium to culture for 24 hours. […]
In order to extract total RNA, RNA was extracted using by Trizol B (Invitrogen) and cDNA was synthesized using by Omniscript RT kit (Qiagen, GmbH, Hilden, Germany) after the quantification.

Another experiment relates to MUC5AC protein. Put plainly: Inhibition of MUC5AC protein secretion (modified ELISA) in H292 cells. In kind it is cell-based, human. Conditions: TNF-alpha 20 ng/ml. The protocol:
In order to determine the inhibitory effect on the reproduction of MUC5AC protein, following test was performed by the method disclosed in the literature (Sikder, M A. et al., Phytother. Res., 2014, 28, 62-68)
For the immunoassay on reproduced MUCSAC, 50 μL of collected supernatant in Experimental Example 3 was distributed to 96 well plate and dried in a thermostat at 50[…].
After washing with 1% BSA added PBS solution, MUCSAC antibody (ab3649, abcam Co.) was added to react together at room temperature for 1 hour and then secondary antibody was added thereto to react together for 1 hour. After re-washing, 3,3′,5,5′-tetramethylbenzidine peroxide solution (54827-17-7, Sigma-aldrich) was added thereto to react together for 20 mins. After stopping the reaction by adding sulfuric acid solution, the absorbance was determined by VERSAmax microplate reader, (SMP500-14915, Molecular Devices, USA) at 450 nm (Sikder, M. A. et al., Phytother. Res., 2014, 28, 62-68; Takeyama, K. et al. Proc. Natl. Acad. Sci. U.S.A., 1999, 96, 3081-3086).
In general terms: An ELISA detects its analyte on a solid surface through an enzyme-linked reagent.

Molecules are shown by their SMILES. “And” between values parts separate entries of the source, which are not always exact repeats. Equal values may be shown once.

Take `O=C(CO)O[C@@H]1O[C@@H]2C[C@H]3[C@H](OC(=O)c4ccc(O)c(O)c4)[C@@H](Cl)[C@@](O)(CO2)[C@@H]13` [KS-534, (3R,5S,5aS,6R,7S,8R,8aS)-8-chloro-8a-hydroxy-5-(2-hydroxyacetoxy) hexahydro-1H-3,6-methanocyclopenta[e][1,3]dioxepin-7-yl3,4-dihydroxybenzoate]: the “Expressed level of MUC5AC mRNA (Relative % comparing with that in TNF-alpha treatment group)” value in the experiment with MUC5AC (10 μM) was 58.47% and 58.47 ± 18.50%. Moreover, in the experiment on MUC5AC (10 μm), the “Inhibitory ratio (%) of MUC5AC mRNA expression” value amounted to 41.52%. Moreover, the “Inhibitory ratio (%) of MUC5AC secretion” value in the experiment on MUC5AC protein (2.5 μm) was 6.62%; with MUC5AC protein (5 μm), 21.73%; with MUC5AC protein (10 μm), 35.23%. For the same compound, the “MUC5AC secretion (relative % comparing with TNF-alpha treatment group)” value in the experiment with MUC5AC protein (2.5 μm) is 93.38% and 93.38 ± 0.90%; in the experiment with MUC5AC protein (5 μm), 78.27% and 78.27 ± 2.16%; in the experiment with MUC5AC protein (10 μm), 64.77% and 64.77 ± 1.56%.

The record behind these values is patent publication US20170217982A1, “Compound isolated from Pseudolysimachion rotundum var. subintegrum, the composition comprising the same for treating allergic disease, inflammatory disease, asthma or chronic obstructive pulmonary disease and the use thereof” (YUNGJIN PHARMACEUTICAL CO., LTD, priority 2014, published 2017).
